Source: patent US8981047B2 (Indiana University Research and Technology Corporation, priority 2007, dated 2015)
Square brackets hold non-standard residues; d marks the D form. Peptide text beside a SMILES is read from it. Abu(4-SO3H) = N[C@@H](CCS(=O)(=O)O)C(=O)O; PhLac = O=C(O)[C@@H](O)Cc1ccccc1

Assays:
glucagon receptor [1] = target: T1, glucagon receptor (Homo sapiens, UniProt P47871); assay: cAMP inhibition (antagonism of glucagon-induced cAMP production); format: cell-based; set-up: expressed in transfected cells; host or cells: HEK293; details: Tables 5-12 and FIGS. 4, 5, 7, 8
T1 sequence (P47871 26-477): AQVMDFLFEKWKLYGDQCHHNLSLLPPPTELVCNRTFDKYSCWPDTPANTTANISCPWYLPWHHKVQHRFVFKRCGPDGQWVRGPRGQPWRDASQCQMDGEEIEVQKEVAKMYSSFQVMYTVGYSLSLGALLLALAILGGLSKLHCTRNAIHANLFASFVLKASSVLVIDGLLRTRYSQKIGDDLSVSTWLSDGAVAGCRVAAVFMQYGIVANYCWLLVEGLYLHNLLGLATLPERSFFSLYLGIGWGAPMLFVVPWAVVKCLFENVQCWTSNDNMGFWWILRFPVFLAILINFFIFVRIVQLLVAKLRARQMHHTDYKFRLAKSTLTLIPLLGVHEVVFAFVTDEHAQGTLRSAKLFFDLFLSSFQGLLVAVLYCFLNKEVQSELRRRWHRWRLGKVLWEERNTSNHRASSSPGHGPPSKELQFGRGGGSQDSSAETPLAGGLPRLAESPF

glucagon receptor [2] = target: T1, glucagon receptor; assay: cAMP induction, firefly luciferase reporter assay in HEK293 cells; format: cell-based; set-up: expressed in transfected cells; host or cells: HEK293; details: read-out: cAMP Induction Glucagon Receptor EC50; Table 2
glucagon receptor [3] = target: T1, glucagon receptor; assay: Glucagon receptor binding assay (scintillation proximity competition with 125I-glucagon); details: 6-29 shortened glucagon amide backbone
GLP-1 receptor = GLP-1 receptor (Homo sapiens, UniProt P43220); assay: cAMP induction, firefly luciferase reporter assay in HEK293 cells; format: cell-based; details: Table 13; cells expressing the human GLP-1 receptor
GLP-1 receptor, sequence (P43220 24-463): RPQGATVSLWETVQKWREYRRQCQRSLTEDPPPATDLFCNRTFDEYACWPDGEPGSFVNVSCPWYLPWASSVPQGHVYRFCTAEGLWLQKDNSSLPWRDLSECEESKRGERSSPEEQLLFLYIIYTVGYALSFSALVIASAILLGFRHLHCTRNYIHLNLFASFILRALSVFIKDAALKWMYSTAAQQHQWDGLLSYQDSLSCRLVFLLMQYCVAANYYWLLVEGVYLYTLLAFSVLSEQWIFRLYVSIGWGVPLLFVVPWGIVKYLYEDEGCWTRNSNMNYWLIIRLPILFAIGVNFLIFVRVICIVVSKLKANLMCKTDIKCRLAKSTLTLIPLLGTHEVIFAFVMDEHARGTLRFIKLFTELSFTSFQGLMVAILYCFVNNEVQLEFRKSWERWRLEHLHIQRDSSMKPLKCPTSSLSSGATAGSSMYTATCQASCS

Q: Which “glucagon antagonism in the cAMP bioassay, result in words” value (from here on “glucagon antagonism”) (glucagon receptor [1]) does the source give for `CC(C)C[C@H](NC(=O)[C@H](Cc1ccc(O)cc1)NC(=O)[C@H](CCCCN)NC(=O)[C@H](CO)NC(=O)[C@H](Cc1ccc(O)cc1)NC(=O)[C@H](CCS(=O)(=O)O)NC(=O)[C@H](CO)NC(=O)[C@@H](NC(=O)[C@H](Cc1ccccc1)NC(=O)[C@@H](NC(=O)[C@H](CC(C)C)NC(=O)[C@H](CCC(N)=O)NC(=O)[C@@H](N)CO)[C@@H](C)O)[C@@H](C)O)C(=O)N[C@@H](CC(=O)O)C(=O)N[C@@H](CO)C(=O)N[C@@H](CCCNC(=N)N)C(=O)N[C@@H](CCCNC(=N)N)C(=O)N[C@@H](C)C(=O)N[C@@H](CCC(N)=O)C(=O)N[C@@H](CC(=O)O)C(=O)N[C@@H](Cc1ccccc1)C(=O)N[C@H](C(=O)N[C@@H](CCC(N)=O)C(=O)N[C@@H](Cc1ccccc1)C(=O)N[C@@H](CC(C)C)C(=O)N[C@@H](CC(C)C)C(=O)N[C@@H](CC(N)=O)C(=O)N[C@H](C(N)=O)[C@@H](C)O)C(C)C` [[desHis^1, Leu^4, hCys^9(SO3-), Phe^25, Leu^27] Glucagon-NH2] (H-SQLTFTS[Abu(4-SO3H)]YSKYLDSRRAQDFVQFLLNT-NH2; N-terminus assumed) here?
A: some level of antagonism

Q: With `CSCC[C@H](NC(=O)[C@H](CC(C)C)NC(=O)[C@H](Cc1c[nH]c2ccccc12)NC(=O)[C@H](CCC(N)=O)NC(=O)[C@@H](NC(=O)[C@H](Cc1ccccc1)NC(=O)[C@H](CC(=O)O)NC(=O)[C@H](CCC(N)=O)NC(=O)[C@H](C)NC(=O)[C@H](CCCNC(=N)N)NC(=O)[C@H](CCCNC(=N)N)NC(=O)[C@H](CO)NC(=O)[C@H](CC(=O)O)NC(=O)[C@H](CC(C)C)NC(=O)[C@H](Cc1ccc(O)cc1)NC(=O)[C@H](CCCCN)NC(=O)[C@H](CO)NC(=O)[C@H](Cc1ccc(O)cc1)NC(=O)[C@H](CCS(=O)(=O)O)NC(=O)[C@H](CO)NC(=O)[C@@H](NC(=O)[C@H](Cc1ccccc1)NC(=O)[C@@H](NC(=O)CN)[C@@H](C)O)[C@@H](C)O)C(C)C)C(=O)N[C@@H](CC(N)=O)C(=O)N[C@H](C(N)=O)[C@@H](C)O` [[hCys^9(SO3H)]Glucagon(aa4-29)-NH2, [hCys(SO3H)9]glucagon (4-29) amide] (H-GTFTS[Abu(4-SO3H)]YSKYLDSRRAQDFVQWLMNT-NH2; N-terminus assumed) as the molecule, how does the “glucagon antagonism” value (glucagon receptor [1]) read?
A: full antagonists

Q: What does the source list for `CSCC[C@H](NC(=O)[C@H](CC(C)C)NC(=O)[C@H](Cc1c[nH]c2ccccc12)NC(=O)[C@H](CCC(N)=O)NC(=O)[C@@H](NC(=O)[C@H](Cc1ccccc1)NC(=O)[C@H](CC(=O)O)NC(=O)[C@H](CCC(N)=O)NC(=O)[C@H](C)NC(=O)[C@H](CCCNC(=N)N)NC(=O)[C@H](CCCNC(=N)N)NC(=O)[C@H](CO)NC(=O)[C@H](CC(=O)O)NC(=O)[C@H](CC(C)C)NC(=O)[C@H](Cc1ccc(O)cc1)NC(=O)[C@H](CCCCN)NC(=O)[C@H](CO)NC(=O)[C@H](Cc1ccc(O)cc1)NC(=O)[C@H](CCS(=O)(=O)O)NC(=O)[C@H](CO)NC(=O)[C@@H](NC(=O)[C@H](Cc1ccccc1)NC(=O)[C@@H](N)[C@@H](C)O)[C@@H](C)O)C(C)C)C(=O)N[C@@H](CC(N)=O)C(=O)N[C@H](C(N)=O)[C@@H](C)O` [[hCys^9(SO3H)]Glucagon(aa5-29)-NH2, [hCys(SO3H)9]glucagon (5-29) amide] (H-TFTS[Abu(4-SO3H)]YSKYLDSRRAQDFVQWLMNT-NH2; N-terminus assumed)?
A: glucagon antagonism in the cAMP bioassay, result in words (glucagon receptor [1]; listed as 5-29 hCys9): pure potent antagonism, without any measurable agonist activity; glucagon antagonism in the cAMP bioassay, result in words (glucagon receptor [1]; listed as 5-29 hCys9-based glucagon antagonist): more potent and effective than the literature standards; glucagon antagonism in the cAMP bioassay, result in words (glucagon receptor [1]; listed as 5-29 hCys(SO3H)^9): full antagonists

Q: `CC(C)C[C@H](NC(=O)[C@H](Cc1ccc(O)cc1)NC(=O)[C@H](CCCCN)NC(=O)[C@H](CO)NC(=O)[C@H](Cc1ccc(O)cc1)NC(=O)[C@H](CCS(=O)(=O)O)NC(=O)[C@H](CO)NC(=O)[C@@H](NC(=O)[C@@H](NC(=O)CNC(=O)[C@H](CCC(N)=O)NC(=O)[C@@H](N)CO)[C@@H](C)O)[C@@H](C)O)C(=O)N[C@@H](CC(=O)O)C(=O)N[C@@H](CO)C(=O)N[C@@H](CCCNC(=N)N)C(=O)N[C@@H](CCCNC(=N)N)C(=O)N[C@@H](C)C(=O)N[C@@H](CCC(N)=O)C(=O)N[C@@H](CC(=O)O)C(=O)N[C@@H](Cc1ccccc1)C(=O)N[C@H](C(=O)N[C@@H](CCC(N)=O)C(=O)N[C@@H](Cc1ccccc1)C(=O)N[C@@H](CC(C)C)C(=O)N[C@@H](CC(C)C)C(=O)N[C@@H](CC(N)=O)C(=O)N[C@H](C(N)=O)[C@@H](C)O)C(C)C` [[desHis^1, desPhe^6, hCys^9(SO3-), Phe^25, Leu^27] Glucagon-NH2] (H-SQGTTS[Abu(4-SO3H)]YSKYLDSRRAQDFVQFLLNT-NH2; N-terminus assumed) was tested. Which “glucagon antagonism” value (glucagon receptor [1]) did it give?
A: some level of antagonism

Q: Which results are given for `CSCC[C@H](NC(=O)[C@H](CC(C)C)NC(=O)[C@H](Cc1c[nH]c2ccccc12)NC(=O)[C@H](CCC(N)=O)NC(=O)[C@@H](NC(=O)[C@H](Cc1ccccc1)NC(=O)[C@H](CC(=O)O)NC(=O)[C@H](CCC(N)=O)NC(=O)[C@H](C)NC(=O)[C@H](CCCNC(=N)N)NC(=O)[C@H](CCCNC(=N)N)NC(=O)[C@H](CO)NC(=O)[C@H](CC(=O)O)NC(=O)[C@H](CC(C)C)NC(=O)[C@H](Cc1ccc(O)cc1)NC(=O)[C@H](CCCCN)NC(=O)[C@H](CO)NC(=O)[C@H](Cc1ccc(O)cc1)NC(=O)[C@H](CCS(=O)(=O)O)NC(=O)[C@H](CO)NC(=O)[C@@H](NC(=O)[C@@H](N)Cc1ccccc1)[C@@H](C)O)C(C)C)C(=O)N[C@@H](CC(N)=O)C(=O)N[C@H](C(N)=O)[C@@H](C)O` [[hCys^9(SO3H)]Glucagon(aa6-29)-NH2] (H-FTS[Abu(4-SO3H)]YSKYLDSRRAQDFVQWLMNT-NH2)?
A: glucagon antagonism in the cAMP bioassay, result in words (glucagon receptor [1]; listed as 6-29 hCys9): pure potent antagonism, without any measurable agonist activity; glucagon antagonism in the cAMP bioassay, result in words (glucagon receptor [1]; listed as 6-29 hCys(SO3H)^9): full antagonists

Q: For Oxyntomodulin C24 PEG 20 K, which EC50 (glucagon receptor [2]) is on record?
A: 0.97 ± 0.04 nM

Q: With “PLA6 analog: native glucagon with first 5 residues deleted and N-terminal amino group of Phe replaced with hydroxyl (phenyl-lactic acid); SEQ ID NO: 39” as the molecule, how does the “increase of affinity for the glucagon receptor relative to the native Phe6 analog” value (glucagon receptor [3]) read?
A: threefold

Q: `CSCC[C@H](NC(=O)[C@H](CC(C)C)NC(=O)[C@H](Cc1c[nH]c2ccccc12)NC(=O)[C@H](CCC(N)=O)NC(=O)[C@@H](NC(=O)[C@H](Cc1ccccc1)NC(=O)[C@H](CC(=O)O)NC(=O)[C@H](CCC(N)=O)NC(=O)[C@H](C)NC(=O)[C@H](CCCNC(=N)N)NC(=O)[C@H](CCCNC(=N)N)NC(=O)[C@H](CO)NC(=O)[C@H](CC(=O)O)NC(=O)[C@H](CC(C)C)NC(=O)[C@H](Cc1ccc(O)cc1)NC(=O)[C@H](CCCCN)NC(=O)[C@H](CO)NC(=O)[C@H](Cc1ccc(O)cc1)NC(=O)[C@H](CCC(=O)O)NC(=O)[C@H](CO)NC(=O)[C@@H](NC(=O)[C@@H](O)Cc1ccccc1)[C@@H](C)O)C(C)C)C(=O)N[C@@H](CC(N)=O)C(=O)N[C@H](C(N)=O)[C@@H](C)O` [[PLA6, E9]Glucagon(aa6-29)-NH2] (H-[PhLac]TSEYSKYLDSRRAQDFVQWLMNT-NH2) was tested. Which “GLP-1 agonism EC50” value (GLP-1 receptor) did it give?
A: No agonism
